Experiments:
[1] = test system: Muscat Bailey A (late-season cv.) grapes; assay: Preservation stability of the grape fruit; format: in vivo; set-up: unit not given here; details: preserved at room temperature for 14 days
From the text: Grapes used in the experiment were Muscat Bailey A (late-season cv.).
The grapes treated in the Example 3 were harvested, and preserved at a room temperature for 14 days. Then, calculation has been done for a ratio of complete grape fruits that were not decayed or no bruise.

[2] = test system: crimson; assay: Yield of crimson grapes, each treatment carried out two times consecutively; format: in vivo, Vitis Vinifera sp.; details: two treatments 40 days apart, LPE 50 ppm, potassium silicate 100 ppm, 200 GPA, Ethrel 400 ppm, 100 GPA, FIG. 1
Experimental: (§1) The grape was selected as a test plant. Crimson and red globe (scientific name: Vitis Vinifera sp.) were used as the grape.
(§2) The control group 2 is the case where they are treated with Ethrel, which is widely sold and used as a plant growth regulator, in an amount of 400 ppm, 100 GPA.
(§3) The control group 3 is such that it is treated with the solution of LPE 10% in an amount of 50 ppm, 200 GPA.
(§4) The solutions were injected in a spray manner, except the control groups 1 and 5. The each treatment was carried out for an area of 5 acres. All treatments were carried out with a typical orchard air blast sprayer.
(§5) All harvests after the each treatment were carried out by the workers belonging to the farm according to the ordinary harvesting method, so that the grapes were harvested in accordance with a commercial standard. The number and grade of the box harvested from the respective treatment row were recorded for each harvest day, with regard to the each treatment.
For the crimson which is cultivated in California, the above 6 treatments were successively carried out two times.

[3] = test system: red globe; assay: Yield of red globe grapes, each treatment carried out two times consecutively; format: in vivo, Vitis Vinifera sp.; details: two treatments 40 days apart, LPE 50 ppm, potassium silicate 100 ppm, 200 GPA, FIG. 3
Experimental: as §1, §2, §3, §4, §5
For the red globe which is cultivated in California, the above 6 treatments were successively carried out two times.

[4] = test system: protoplast of corn root; assay: Reactive oxygen species (ROS) by DCF-DA flow cytometry; format: cell-based, Zea mays L; details: incubated 5 minutes
Experimental: The corns (Zea mays L) were used according to the following procedures: seeds of Golden cross Bantam were sufficiently washed in the flowing water and immersed in the distilled water for 24 hours. Then, the seeds were arranged in a line on the cultivation dish where the paper wetted with the distilled water was put on the cultivation dish and the ventral side of the seeds was forced to touch with the dish bottom. The seeds were covered with the wetted paper by two folds. […] The individuals having the root length of 1.5-2 cm were selected and used in this experiment. The protoplast of the corn root etiolated was modified according to the following method (Sheen J, Metabolic repression of transcription in higher plants, Plant Cell, 1990 October: 2(10):1027-38). In other words, the protoplast was separated from the two-day etiolated young corn plant. […] The compound was converted into […] by the esterase in the cell, which was in turn oxidized by the reactive oxygen species such as H2O2 and thus changed into 2′, 7′-dichlorofluorescine (DCF) having the highest fluorescence. […]

[5] = test system: crimson; assay: Yield of crimson grapes, single application; format: in vivo, Vitis Vinifera sp.; details: one treatment, LPE 50 ppm, potassium silicate 100 ppm, 200 GPA, FIG. 2
Experimental: as §1
The each treatment was carried out for an area of 5 acres. All treatments were carried out with a typical orchard air blast sprayer.
as §5
For the crimson which is cultivated in California, the above 6 treatments were carried out. The treatment was carried out only one time.

[6] = test system: Muscat Bailey A (late-season cv.) grapes; assay: Coloring development of grape fruit; format: in vivo; details: two weeks after treatment; LPE 50 ppm, sodium silicate 100 ppm, 200 GPA; FIGS. 7a to 7c
From the text: Grapes used in the experiment were Muscat Bailey A (late-season cv.). […] [table]

[7] = test system: Muscat Bailey A (late-season cv.) grapes; assay: Color of grape leaves; format: in vivo; details: two weeks after treatment; LPE 50 ppm, sodium silicate 100 ppm, 200 GPA; FIGS. 8a to 8c
Experimental: Grapes used in the experiment were Muscat Bailey A (late-season cv.). […] [table] Meanwhile, an observation after two weeks was also carried out for colors of grape leaves.

[8] = test system: mung beans; assay: Adventitious root growth of mung beans; format: in vivo; details: two weeks after treatment; 50 ppm each; FIGS. 9 and 10

## lysophosphatidylethanolamine [LPE]
[1]; Average of 6 repeats
  ratio of complete grape fruits that were not decayed or no bruise: 6.9
[1]; Repeat 1
  ratio of complete grape fruits that were not decayed or no bruise: 14.2
[1]; Repeat 2
  ratio of complete grape fruits that were not decayed or no bruise: 15.6
[1]; Repeat 3
  ratio of complete grape fruits that were not decayed or no bruise: 4.0
[1]; Repeat 4
  ratio of complete grape fruits that were not decayed or no bruise: 0
[1]; Repeat 5
  ratio of complete grape fruits that were not decayed or no bruise: 3.7
[1]; Repeat 6
  ratio of complete grape fruits that were not decayed or no bruise: 3.7
[2]
  yield of the grapes (ranking of groups): smaller than those of the control groups 1 and 5 which were not treated
[3]
  increase of yield as compared to the control groups 1 and 5, which were not treated: about 22 boxes
[4]; LPE 20 ppm (combination: + sodium silicate 40 ppm)
  increase amount of ROS: 200-300%
[4]; LPE 50 ppm (combination: + sodium silicate 100 ppm)
  increase amount of ROS: 200-300%
[5]
  yield: 96.3
[6]
  colors of grapes: excellent in the order of the experimental group 4, the control group 11, and the control group 10
[7]
  colors of grape leaves: many leaves become discolored to yellow
[8]
  length of the adventitious roots: the length thereof is short
  number of the adventitious roots: large number

— patent US20100255990A1, “METHOD, COMPOSITION AND KIT FOR PROMOTIONG PLANT GROWTH AND IMPROVING PLANT PRESERVATION” (Doosan Corporation, priority 2005, published 2010)
